Literature values in patent US6447807B1, “Potassium (-)-hydroxycitric acid methods for pharmaceutical preparations for stable and controlled delivery” (priority 1999, dated 2002).

Details: single large oral dose, or two divided oral doses totaling one fourth of it; animals fed a high-sugar diet

## O=C(O)CC(O)(C(=O)O)C(O)C(=O)O (single isomer, unassigned; (-)) [HCA, (−)-Hydroxycitric acid]
  reduction in food consumption: ≥ 10%
